# Test results: patent US20250188151A1, “C-JUN ANTAGONIST PEPTIDES” (The University of Bath, priority 2022, published 2025)
# Bridge positions count the residues as written; N and C are the ends. Peptide text beside a SMILES is read from it.
# Legend:
# [1] = molecular target: cJun bZIP (Homo sapiens, UniProt P05412, S292Y); test: CD spectra and thermal denaturation of peptide/cJun heterodimers; conditions: peptide (5 μM)/c-Jun (5 μM) heterodimer; Table 6
# [2] = molecular target: T1, cJun/TRE DNA interaction (Homo sapiens, UniProt P05412, S292Y); test: CD cJun/TRE DNA antagonism (shift of TRE DNA peak at ~281 nm, Hill fit); assay type: biochemical; conditions: ratio of CD IC50
# T1 construct: The same 60 amino acid c-Jun bZIP construct was used for all experiments; His-SUMO (N, cleaved yes); made in house; host or cells: E. coli
# Source text: Briefly, in TBS the coding region for the essential gene dihydrofolate reductase (DHFR) is mutated to incorporate TRE sites so that introduction of c-Jun to this gene inside E. coli produces a transcriptional block that abrogates cell proliferation. The TRE site-bound c-Jun molecules sterically prevent RNA polymerase transcribing the essential gene and this can only be restored upon introduction of an effective c-Jun/TRE antagonist. Consequently, the survival of a particular cell is controlled by the ability of a peptide library member to remove the c-Jun transcriptional block and therefore to restore DHFR activity. TBS thus facilitates the identification of therapeutically valuable sequences. Further details for the TBS assay are provided in WO2020128015, which is incorporated herein by reference in its entirety. […] The TRE-DNA construct produces a positive CD peak at ˜281 nm, which decreases in intensity upon c-Jun binding. […] This method allows for the calculation of an IC50 value by fitting the titration data to a Hill equation. In some embodiments, the c-Jun antagonist is able to inhibit the DNA-binding activity of c-Jun within 10-fold of the ability of HingeW to inhibit the DNA-binding activity of c-Jun (e.g. the c-Jun antagonist has a reduced ability to inhibit the DNA-binding activity of c-Jun that is within 10-fold of that determined for HingeW). In some embodiments, the c-Jun antagonist is able to inhibit the DNA-binding activity of c-Jun within 9-fold, preferably within 8-fold, more preferably within 7-fold, even more preferably within 6-fold, yet more preferably within 5-fold of the ability of HingeW to inhibit the DNA-binding activity of c-Jun. The ability of the c-Jun antagonist and HingeW to inhibit the DNA-binding activity may be measured using the TBS assay (e.g. by quantifying the number of colonies) or by determining the IC50 using a circular dichroism assay described herein. Optionally, the c-Jun antagonist may have this activity when cross-linked. Methods for cross-linking peptides are described in more detail below.
# Therefore, the acidic domain was the initial focus for optimisation. 1 was iteratively truncated (2-6) to investigate the effect on c-Jun binding and c-Jun/TRE DNA antagonism. […] Thermal denaturation experiments were then used to determine the Tm of peptide-c-Jun heterodimers, which was used as an approximate measure of target engagement. CD was also used to investigate the ability of the functional activity of peptides in antagonising the c-Jun/TRE DNA interaction. The TRE-DNA construct used produces a positive CD peak at ˜281 nm (no c-Jun absorbance at this wavelength allows for direct measurement of DNA upon binding) which decreases in intensity upon c-Jun binding. […] This allowed for the calculation of an IC50 value by fitting the titration data to a Hill equation. […] The same 60 amino acid c-Jun bZIP construct was used for all experiments, regardless of antagonist peptide length.
# Sequence of cJun bZIP (P05412 with tags, fused parts or gaps S292Y): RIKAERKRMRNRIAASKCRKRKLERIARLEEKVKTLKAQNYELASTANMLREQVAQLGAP
# T1 sequence (P05412 with tags, fused parts or gaps S292Y): as above
Compound,Tm (° C.) [1],fold reduction in antagonism relative to 4 [2],fold reduction in cJun/TRE antagonism relative to 1 [2],also measured
Ac-EAEELVVEEDVLEEEIEQLEERNYALRKEIEDL-NH2 [Peptide 25],44.8 ± 1.2 °C,26.7 fold,–,fold reduction in antagonism relative to 11 [2]: 14.8 fold
CC[C@H](C)[C@H](NC(=O)[C@H](CCC(=O)O)NC(=O)[C@H](CCCCN)NC(=O)[C@H](CCCNC(=N)N)NC(=O)[C@H](CC(C)C)NC(=O)[C@H](C)NC(=O)[C@H](Cc1ccc(O)cc1)NC(=O)[C@H](CC(N)=O)NC(=O)[C@H](CCCNC(=N)N)NC(=O)[C@H](CCC(=O)O)NC(=O)[C@H](CCC(=O)O)NC(=O)[C@H](CC(C)C)NC(=O)[C@H](CCC(N)=O)NC(=O)[C@H](CCC(=O)O)NC(=O)[C@@H](NC(=O)[C@H](CCC(=O)O)NC(=O)[C@H](CCC(=O)O)NC(=O)[C@H](CCC(=O)O)NC(=O)[C@H](CC(C)C)NC(=O)[C@@H](NC(=O)[C@H](CC(=O)O)NC(=O)[C@H](CCC(=O)O)NC(=O)[C@H](CCC(=O)O)NC(=O)[C@@H](NC(=O)[C@@H](NC(=O)[C@H](CC(C)C)NC(C)=O)C(C)C)C(C)C)C(C)C)[C@@H](C)CC)C(=O)N[C@@H](CCC(=O)O)C(=O)N[C@@H](CC(=O)O)C(=O)N[C@@H](CC(C)C)C(=O)N[C@@H](CCC(N)=O)C(=O)N[C@H]1CCCCNC(=O)C[C@@H](C(=O)N[C@@H](CC(C)C)C(N)=O)NC(=O)[C@H](CCC(=O)O)NC(=O)[C@H](CC(C)C)NC(=O)[C@H](CCC(N)=O)NC1=O [Peptide 10] (Ac-LVVEEDVLEEEIEQLEERNYALRKEIEDLQKQLEDL-NH2; lactam 31-35),68.3 ± 0.9 °C,–,–,fold increase in antagonism relative to the linear counterpart 5 [2]: 1.9 fold
Ac-LVVEEDVLEEEIEQLEERNYALRKEIEDLQKQLEKL-NH2 [Peptide 5],62.8 ± 1.0 °C,1.7 fold,5.8 fold,fold better antagonism than 6 [2]: 1.7 fold; fold reduction in antagonism relative to 3 [2]: 2.3 fold
CC[C@H](C)[C@@H]1NC(=O)[C@H](CCC(=O)O)NC(=O)[C@@H](NC(=O)[C@H](CCCNC(=N)N)NC(=O)[C@H](CC(C)C)NC(=O)[C@H](C)NC(=O)[C@H](Cc2ccc(O)cc2)NC(=O)[C@H](CC(N)=O)NC(=O)[C@H](CCCNC(=N)N)NC(=O)[C@H](CCC(=O)O)NC(=O)[C@H](CCC(=O)O)NC(=O)[C@H](CC(C)C)NC(=O)[C@H](CCC(N)=O)NC(=O)[C@H](CCC(=O)O)NC(=O)[C@@H](NC(=O)[C@H](CCC(=O)O)NC(=O)[C@H](CCC(=O)O)NC(=O)[C@H](CCC(=O)O)NC(=O)[C@H](CC(C)C)NC(=O)[C@@H](NC(=O)[C@H](CC(=O)O)NC(=O)[C@H](CCC(=O)O)NC(=O)[C@H](CCC(=O)O)NC(=O)[C@@H](NC(=O)[C@@H](NC(=O)[C@H](CC(C)C)NC(=O)[C@H](CCC(=O)O)NC(=O)[C@H](CCC(=O)O)NC(=O)[C@H](C)NC(=O)[C@H](CCC(=O)O)NC(C)=O)C(C)C)C(C)C)C(C)C)[C@@H](C)CC)CCCCNC(=O)C[C@@H](C(=O)N[C@@H](CC(C)C)C(=O)N[C@@H](CCC(N)=O)C(N)=O)NC(=O)[C@H](CCC(=O)O)NC1=O [Peptide 29] (Ac-EAEELVVEEDVLEEEIEQLEERNYALRKEIEDLQ-NH2; lactam 28-32),57.2 ± 0.4 °C,–,10.4 fold,–

# More lines, main results first:
Tm (° C.) [1],fold reduction in antagonism relative to 4 [2],fold reduction in cJun/TRE antagonism relative to 1 [2],Compound,also measured
55.1 ± 1.1 °C,–,9.7 fold,Ac-EDVLEEEIEQLEERNYALRKEIEDLQKQLEKLGAP-NH2 [Peptide 6],fold reduction in antagonism relative to 5 [2]: 1.7 fold
67.9 ± 0.9 °C,–,–,Ac-LEKEAEELVVEEDVLEEEIEQLEERNYALRKEIEDLQKQLEKL-NH2 [Peptide 3],fold reduction in antagonism relative to 2 [2]: 2 fold
